pEC50, pIC50: −log10 of the molar value.
Experiments:
Type in all cases: cell-based
Cannabinoid receptor 1 [1] = target: T1, Cannabinoid receptor 1 (Homo sapiens, UniProt P21554); assay: Allosteric modulation of human recombinant CB1 receptor expressed in HEK293 cells assessed as inhibition of [3H]CP55940 binding
Cannabinoid receptor 2 [2] = target: T2, Cannabinoid receptor 2 (Homo sapiens, UniProt P34972); assay: Allosteric modulation of human recombinant CB2 receptor expressed in HEK293 cells assessed as inhibition of [3H]CP55940 binding at 10 uM
T2 sequence (P34972 whole entry): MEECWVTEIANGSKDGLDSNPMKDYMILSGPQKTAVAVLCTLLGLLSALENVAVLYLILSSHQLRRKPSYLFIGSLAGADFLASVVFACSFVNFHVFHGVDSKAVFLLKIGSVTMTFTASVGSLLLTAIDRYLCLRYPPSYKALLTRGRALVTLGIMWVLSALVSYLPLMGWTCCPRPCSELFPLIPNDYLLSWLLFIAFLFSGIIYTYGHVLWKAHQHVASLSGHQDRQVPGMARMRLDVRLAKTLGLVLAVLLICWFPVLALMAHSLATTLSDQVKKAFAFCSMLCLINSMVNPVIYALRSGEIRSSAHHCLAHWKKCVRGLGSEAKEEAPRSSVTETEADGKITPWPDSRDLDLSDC

Cannabinoid receptor 2 [3] = target: T2, Cannabinoid receptor 2; assay: Allosteric modulation of human recombinant CB2 receptor expressed in HEK293 cells assessed as inhibition of [3H]CP55940 binding
Cannabinoid receptor 1 [4] = target: T1, Cannabinoid receptor 1; assay: Allosteric modulation of human recombinant CB1 receptor expressed in HEK293 cells assessed as inhibitor of [3H]CP55940 binding at 10 uM
Cannabinoid receptor 1 [5] = target: T1, Cannabinoid receptor 1; assay: Allosteric modulation of human recombinant CB1 receptor expressed in HEK293 cells assessed as stimulation of [3H]CP55940 binding
Cannabinoid receptor 1 [6] = target: T1, Cannabinoid receptor 1; assay: Allosteric modulation of human recombinant CB1 receptor expressed in HEK293 cells assessed as stimulation of [3H]CP55940 binding at 10 uM
Cannabinoid receptor 1 [7] = target: T1, Cannabinoid receptor 1; assay: Allosteric modulation of human recombinant CB1 receptor expressed in HEK293 cells assessed as inhibition of [3H]CP55940 binding at 25 uM
Cannabinoid receptor 2 [8] = target: T2, Cannabinoid receptor 2; assay: Allosteric modulation of human recombinant CB2 receptor expressed in HEK293 cells assessed as stimulation of [3H]CP55940 binding at 10 uM
Cannabinoid receptor 2 [9] = target: T2, Cannabinoid receptor 2; assay: Allosteric modulation of human recombinant CB2 receptor expressed in HEK293 cells assessed as stimulation of [3H]CP55940 binding

T1 sequence (P21554 whole entry): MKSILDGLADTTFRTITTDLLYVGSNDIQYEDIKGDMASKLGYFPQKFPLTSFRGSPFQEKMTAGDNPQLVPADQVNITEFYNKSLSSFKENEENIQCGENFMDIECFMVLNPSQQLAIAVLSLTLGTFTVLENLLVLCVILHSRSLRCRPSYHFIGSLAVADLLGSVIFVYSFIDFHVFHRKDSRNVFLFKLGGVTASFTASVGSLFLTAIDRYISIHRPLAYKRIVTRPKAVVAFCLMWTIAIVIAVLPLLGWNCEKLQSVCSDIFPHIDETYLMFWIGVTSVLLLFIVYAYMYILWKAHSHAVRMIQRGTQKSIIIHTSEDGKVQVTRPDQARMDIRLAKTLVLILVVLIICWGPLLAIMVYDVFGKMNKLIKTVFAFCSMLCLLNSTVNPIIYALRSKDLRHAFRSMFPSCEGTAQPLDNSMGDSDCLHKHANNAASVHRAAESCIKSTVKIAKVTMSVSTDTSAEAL

| Compound | inhibition (Cannabinoid receptor 2 [2]) [%] | pIC50 (Cannabinoid receptor 2 [3]) | pEC50 (Cannabinoid receptor 1 [5]) | Activity (Cannabinoid receptor 1 [6]) [%] | pIC50 (Cannabinoid receptor 1 [1]) | inhibition (Cannabinoid receptor 1 [4]) [%] | inhibition (Cannabinoid receptor 1 [7]) [%] | Activity (Cannabinoid receptor 2 [8]) [%] | pEC50 (Cannabinoid receptor 2 [9]) |
| --- | --- | --- | --- | --- | --- | --- | --- | --- | --- |
| CCc1c(C(=O)NCCc2ccc([N+](=O)[O-])cc2)[nH]c2ccc(Cl)cc12 | 0 | < 5.00 | 6.44 | 242 |  |  |  |  |  |
| CC(=O)c1c(C(=O)NCCc2ccc(N3CCCCC3)cc2)[nH]c2ccc(Cl)cc12 | 7.9 | < 5.00 |  |  | < 5.00 |  | 19.9 |  |  |
| O=C(NCCc1ccc(Cl)cc1)c1cc2cc(Cl)ccc2[nH]1 | 11.1 | < 5.00 | < 5.00 | 115 |  |  |  |  |  |
| O=C(NCCc1ccc([N+](=O)[O-])cc1)c1cc2cc(Cl)ccc2[nH]1 | 32.7 | < 5.00 | < 5.00 | 141 |  |  |  |  |  |
| CNc1ccc(CCNC(=O)c2cc3cc(Cl)ccc3[nH]2)cc1 | 43.7 | < 5.00 |  |  | < 5.00 | 3.8 |  |  |  |
| Nc1ccc(CCNC(=O)c2cc3cc(Cl)ccc3[nH]2)cc1 | 37.7 | < 5.00 |  |  | < 5.00 | 3.6 |  |  |  |
| CCc1c(C(=O)NCCc2ccc(N)cc2)[nH]c2ccc(Cl)cc12 | 31.1 | < 5.00 | < 5.00 | 145 |  |  |  |  |  |
| CCc1c(C(=O)NCCc2ccc(N3CCCC3)cc2)[nH]c2ccc(Cl)cc12 |  |  | < 5.00 | 134 |  |  |  | 135 | < 5.00 |
| CCc1c(C(=O)OCCc2ccc([N+](=O)[O-])cc2)[nH]c2ccc(Cl)cc12 | 16.8 | < 5.00 |  |  | < 5.00 | 24.7 |  |  |  |
| O=C(NCCc1ccc(N2CCCCC2)cc1)c1cc2cc(Cl)ccc2[nH]1 | 37.9 | < 5.00 | 7.05 | 207 |  |  |  |  |  |
| Cc1c(C(=O)NCCc2ccc(N3CCCCC3)cc2)[nH]c2ccc(Cl)cc12 |  |  | 6.64 | 243 |  |  |  | 111 | < 5.00 |

Second part, led by results:

| inhibition (Cannabinoid receptor 2 [2]) [%] | pIC50 (Cannabinoid receptor 2 [3]) | pEC50 (Cannabinoid receptor 1 [5]) | Activity (Cannabinoid receptor 1 [6]) [%] | Compound | pIC50 (Cannabinoid receptor 1 [1]) | inhibition (Cannabinoid receptor 1 [4]) [%] | inhibition (Cannabinoid receptor 1 [7]) [%] | Activity (Cannabinoid receptor 2 [8]) [%] | pEC50 (Cannabinoid receptor 2 [9]) |
| --- | --- | --- | --- | --- | --- | --- | --- | --- | --- |
| 65.7 | 5.25 |  |  | CCc1c(C(=O)OCCc2ccc(N(C)C)cc2)[nH]c2ccc(Cl)cc12 | < 5.00 | 19.6 |  |  |  |
| 37.7 | < 5.00 | < 5.00 | 112 | CCc1c(C(=O)NCCc2ccc(F)cc2)[nH]c2ccc(Cl)cc12 |  |  |  |  |  |
| 48.9 | < 5.00 | 6.12 | 179 | CCc1c(C(=O)NCCc2ccc(Cl)cc2)[nH]c2ccc(Cl)cc12 |  |  |  |  |  |
| 22.8 | < 5.00 | 7.30 | 227 | CCc1c(C(=O)NCCc2ccc(N(C)C)cc2)[nH]c2ccc(Cl)cc12 |  |  |  |  |  |
| 52.7 | 5.08 |  |  | CCc1c(C(=O)OCCc2ccc(N3CCCCC3)cc2)[nH]c2ccc(Cl)cc12 | < 5.00 | 18 |  |  |  |
| 55.7 | 5.04 | 6.02 | 183 | CCc1c(C(=O)NCCc2ccc(NC)cc2)[nH]c2ccc(Cl)cc12 |  |  |  |  |  |
| 55.2 | 5.05 | 6.09 | 244 | CCc1c(C(=O)NCCc2ccc(N3CCCCC3)cc2)[nH]c2ccccc12 |  |  |  |  |  |
| 20.6 | < 5.00 | 6.85 | 244 | CCc1c(C(=O)NCCc2ccc(N3CCCCC3)cc2)[nH]c2ccc(Cl)cc12 |  |  |  |  |  |
| 66.7 | 5.16 | < 5.00 | 132 | CCc1c(C(=O)NCCc2ccc(N3CCN(C)CC3)cc2)[nH]c2ccc(Cl)cc12 |  |  |  |  |  |
| 33.1 | < 5.00 | 5.07 | 180 | CC(O)c1c(C(=O)NCCc2ccc(N3CCCCC3)cc2)[nH]c2ccc(Cl)cc12 (racemic) |  |  |  |  |  |
| 29 | < 5.00 | 6.26 | 189 | CCc1c(C(=O)NCCc2ccc(C)cc2)[nH]c2ccc(Cl)cc12 |  |  |  |  |  |
| 42.1 | < 5.00 | 5.82 | 171 | CN(C)c1ccc(CCNC(=O)c2cc3cc(Cl)ccc3[nH]2)cc1 |  |  |  |  |  |
